In one assay the target is T1, IDO1 (Homo sapiens, UniProt P14902).
T1 construct: HeLa cells were treated with a test compound in the presence of IFNγ, which induces IDO1 expression; host or cells: H1-HeLa cells, IDO1 induced with IFNγ
T1 sequence (P14902 whole entry): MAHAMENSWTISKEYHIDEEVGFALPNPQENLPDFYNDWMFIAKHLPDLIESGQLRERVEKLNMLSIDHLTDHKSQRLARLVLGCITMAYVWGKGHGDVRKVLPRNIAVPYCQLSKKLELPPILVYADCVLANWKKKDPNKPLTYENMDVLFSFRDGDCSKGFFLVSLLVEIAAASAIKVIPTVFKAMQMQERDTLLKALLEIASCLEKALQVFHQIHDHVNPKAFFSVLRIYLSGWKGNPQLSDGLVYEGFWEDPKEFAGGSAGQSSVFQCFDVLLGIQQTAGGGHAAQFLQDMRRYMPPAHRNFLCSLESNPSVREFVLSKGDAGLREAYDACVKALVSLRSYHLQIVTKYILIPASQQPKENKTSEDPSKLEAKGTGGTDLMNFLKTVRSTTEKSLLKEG
The assay can be described thus: Cell-based (HeLa) assay for measurement of IDO1 inhibition (kynurenine levels in supernatant after IFNγ induction). To be noted: HeLa cells, IFNγ-induced IDO1, kynurenine in supernatant after 48 hour incubation; geometric mean of a minimum of four determinations. Put shortly:
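IDO1 activity is read as kynurenine released into the medium, detected with Ehrlich's reagent (p-dimethylaminobenzaldehyde) at 480 nm after TCA treatment. HeLa cells were exposed 48 h to compounds in 0.5% DMSO alongside IFNγ induction. Values normalized to no-IFNγ and IFNγ controls; four-parameter EC50 given as geometric mean of ≥4 determinations.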
Regarding `O/N=C(\Nc1cccc(Br)c1)c1ccnc2nc(CCN3CCCCC3)[nH]c12` [Example 272, N-(3-bromophenyl)-N′-hydroxy-2-(2-(piperidin-1-yl)ethyl)-1H-imidazo[4,5-b]pyridine-7-carboximidamide], the EC50 (usually the midpoint of the concentration-response curve) worked out at 477 nM.

Compound `O/N=C(\Nc1ccc(F)cc1)c1ccnc2nc[nH]c12` [Example 89, N-(4-Fluorophenyl)-N′-hydroxy-1H-imidazo[4,5-b]pyridine-7-carboximidamide] yielded an EC50 of 943 nM. This EC50 is about 2-fold higher than that of the compound before.

On to `O/N=C(\Nc1ccc(Br)cc1)c1ccnc2nc[nH]c12` [Example 88, N-(4-Bromophenyl)-N′-hydroxy-1H-imidazo[4,5-b]pyridine-7-carboximidamide], for which a half-maximal response (EC50) required 916 nM.

With `CN(CCNc1nc2nccc(/C(=N/O)Nc3ccc(F)c(Cl)c3)c2[nH]1)CC(F)F` [Example 220, N-(3-chloro-4-fluorophenyl)-2-((2-((2,2-difluoroethyl)(methyl)amino)ethyl)amino)-N′-hydroxy-1H-imidazo[4,5-b]pyridine-7-carboximidamide], the EC50 stood at 2380 nM. This EC50 is about 2.6-fold higher than that of the compound before.

For `Nc1nc2c(F)ccc(/C(=N/O)Nc3cccc(Cl)c3)c2[nH]1` [Example 20, 2-Amino-N-(3-chlorophenyl)-4-fluoro-N′-hydroxy-1H-benzo[d]imidazole-7-carboximidamide], a half-maximal response (EC50) required 404 nM.

The compound `CN(CCNc1nc2nccc(/C(=N/O)Nc3ccc(F)c(Cl)c3)c2[nH]1)C1CCOCC1` [Example 239, N-(3-chloro-4-fluorophenyl)-N′-hydroxy-2-((2-(methyl(tetrahydro-2H-pyran-4-yl)amino)ethyl)amino)-1H-imidazo[4,5-b]pyridine-7-carboximidamide] gave a 50% effective concentration (EC50) of 1210 nM.

For the compound `O/N=C(\Nc1cccc(OC(F)(F)F)c1)c1ccnc2nc[nH]c12` [Example 99, N′-Hydroxy-N-(3-(trifluoromethoxy)phenyl)-1H-imidazo[4,5-b]pyridine-7-carboximidamide], the EC50 turned out to be 602 nM.

Compound `CC(C)(CO)CNCc1nc2nccc(/C(=N/O)Nc3ccc(F)c(Cl)c3)c2[nH]1` [Example 143, N-(3-Chloro-4-fluorophenyl)-N′-hydroxy-2-(((3-hydroxy-2,2-dimethylpropyl)amino)methyl)-1H-imidazo[4,5-b]pyridine-7-carboximidamide] came in with an EC50 of 7350 nM.

The compound `NC1(CNc2nc3nccc(/C(=N/O)Nc4ccc(F)c(Cl)c4)c3[nH]2)CC1` [Example 241, 2-(((1-aminocyclopropyl)methyl)amino)-N-(3-chloro-4-fluorophenyl)-N′-hydroxy-1H-imidazo[4,5-b]pyridine-7-carboximidamide] returned a concentration giving a half-maximal response (EC50) of 1370 nM.

In turn, `O/N=C(\Nc1ccc(F)c(C2CC2)c1)c1ccnc2nc[nH]c12` [Example 65, N-(3-Cyclopropyl-4-fluorophenyl)-N′-hydroxy-1H-imidazo[4,5-b]pyridine-7-carboximidamide] yielded a 50% effective concentration (EC50) of 1810 nM.

Staying with this assay, now noted: HeLa cells, IFNγ-induced IDO1, kynurenine in supernatant, 48 hour incubation; geometric mean of a minimum of four determinations.
`CN1CCOCC1CNc1nc2c(F)c(F)cc(/C(=N/O)Nc3ccc(F)c(Cl)c3)c2[nH]1` (stereo not shown) [Example 429, N-(3-chloro-4-fluorophenyl)-4,5-difluoro-N′-hydroxy-2-(((4-methylmorpholin-3-yl)methyl)amino)-1H-benzo[d]imidazole-7-carboximidamide]: the concentration for a half-maximal effect (EC50) turned out to be 1350 nM.

`O/N=C(\Nc1ccc(F)c(Cl)c1)c1ccnc2nc(NCCN3CCC[C@H]3C(F)(F)F)[nH]c12` [Example 481, (S)-N-(3-chloro-4-fluorophenyl)-N′-hydroxy-2-((2-(2-(trifluoromethyl)pyrrolidin-1-yl)ethyl)amino)-1H-imidazo[4,5-b]pyridine-7-carboximidamide] had an EC50 of 760 nM.

On to `CN(C)C1(CNc2nc3c(F)c(F)cc(/C(=N/O)Nc4ccc(F)c(Cl)c4)c3[nH]2)CCCC1` [Example 438, N-(3-chloro-4-fluorophenyl)-2-(((1-(dimethylamino)cyclopentyl)methyl)amino)-4,5-difluoro-N′-hydroxy-1H-benzo[d]imidazole-7-carboximidamide], for which a half-maximal effect (EC50) was put at 838 nM.

(Values after patent publication US9951065B2 (Gilead Sciences, Inc., priority 2015, dated 2018).)
